Results from patent publication EP2594270A2, “The use of sGC stimulators, sGC activators, alone and combinations with PDE5 inhibitors for the treatment of systemic sclerosis (SSc)” (BIP Patents, priority 2011, dated 2013).
Where two headings read alike, the source gives them in different places.

Key:
[1] = test system: Bleomycin-induced skin fibrosis; assay: Bleomycin-induced skin fibrosis, preventive dose-regimen (Example A): dermal thickness, hydroxyproline assay, αSMA immunohistochemistry; assay type: in vivo, mice; conditions: for Collagen content: hydroxyproline assay; for Myofibroblast count: αSMA positive cells
Experimental: Local skin fibrosis was induced in 6-week-old, pathogen-free, female DBA/2 mice (Charles River, Sulzfeld, Germany) by repeated (every other day) subcutaneous injections of bleomycin (0,5 mg/ml in saline) in a defined area of the upper back. Control mice were injected in the same manner with saline only and served as reference. For all groups the injection volume was 100 µl. Concomitant to bleomycin treatment, the mice were treated orally with test drug or vehicle. Mice were treated a) with vehicle b) with 1 mg/kg example 1A, and c) with 3 mg/kg example 1A, twice a day via gavage for 21 days. After this 3 weeks treatment period, the animals were sacrificed and skin samples were obtained for analysis.
(§1) The injected skin areas were fixed in 4% formalin and embedded in paraffin. Histological sections were stained with hematoxylin and eosin for the determination of dermal thickness. The dermal thickness was determined by measuring the largest distance between the epidermal-dermal junction and the dermal-subcutaneous fat junction. The measurements were performed by an examiner blinded to the treatment of the mice.
(§2) To analyze the collagen content in skin samples, hydroxyproline assay was performed. After digestion of punch biopsies (Ø 3mm) in 6M HCl for three hours at 120°C, chloramine T (0.06 M) was added and samples were mixed and incubated for 20 min at room temperature. 3.15 M perchloric acid and 20 % p-dimethylaminobenzaldehyde were added and samples were incubated for additional 20 min at 60 °C. The absorbance was determined at 557 nm.
(§3) The expression of α-smooth muscle actin (αSMA) was analyzed in paraffin embedded sections. After deparaffinization, samples were incubated with 3% bovine serum albumin followed by incubation with 3% H2O2. αSMA positive cells in mouse sections were detected by incubation with monoclonal anti-αSMA antibodies (clone 1A4, Sigma-Aldrich, Steinheim, Germany). Irrelevant isotype antibodies in the same concentration were used for control (Santa Cruz Biotechnology, Santa Cruz, CA, USA). Antibodies labeled with horseradish peroxidase (Dako, Hamburg, Germany) were used as secondary antibodies. The expression of the NICD and αSMA was visualized with DAB peroxidase substrate solution (Sigma-Aldrich). The number of myofibroblasts was counted from 4 different sections of lesional skin for each mouse by an examiner blinded to the treatment of the mice. Table 1: Effects of example 1A on development of Bleomycin-induced skin fibrosis.
Fibrosis parameters expressed as x-fold change with respect to vehicle-treated control

[2] = test system: established Bleomycin-induced skin fibrosis; assay: Established bleomycin-induced skin fibrosis, therapeutic dose-regimen (Example B): dermal thickness, hydroxyproline assay, αSMA immunohistochemistry; assay type: in vivo, mice
Experimental: as §1, §2, §3
Local skin fibrosis was induced in 6-week-old, pathogen-free, female DBA/2 mice (Charles River, Sulzfeld, Germany) by repeated (every other day) subcutaneous injections of bleomycin (0,5 mg/ml in saline) in a defined area of the upper back. Control mice were injected in the same manner with saline only. For all groups the injection volume was 100 µl. The study comprises 4 arms with • a) mice receiving saline injection for 6 weeks (serving as reference) • b) mice receiving Bleomycin injection for 6 weeks • c) mice receiving Bleomycin injection for 6 weeks and additional treatment with example 1A (3 mg/kg) twice a day via gavage for the last 3 weeks • d) mice receiving the first 3 weeks bleomycin injections and the second 3 weeks saline injection.
After 6 weeks the animals were sacrificed and skin samples were obtained for analysis.
Histological analysis, hydroxyproline assay and immunhistochemistry for α-smooth muscel actin were performed as described in the Example 1A section. Table 3: Effects of example 1A (3mg/kg p.o.) on established Bleomycin-induced skin fibrosis Fibrosis parameters expressed as x-fold change with respect to vehicle-treated control (group a)

[3] = test system: established skin fibrosis in Tsk-mice; assay: Tight skin (Tsk-1) mouse model of systemic sclerosis (Example C): dermal thickness, hydroxyproline assay, αSMA immunohistochemistry; assay type: in vivo; conditions: for hypodermal thickness / Collagen content / Myofibroblast count: oral gavage, x-fold change with respect to vehicle-treated wild type mice; for hypodermal thickness: five weeks of treatment; for Collagen content: hydroxyproline assay; for Collagen content / Myofibroblast count: five weeks; for Myofibroblast count: αSMA positive cells
Experimental: as §1, §2, §3
In addition to the mouse model of bleomycin-induced dermal fibrosis, the tight-skin (Tsk-1) mouse model of systemic sclerosis was used to evaluate the anti-fibrotic potential of test drugs. Due to a dominant mutation in fibrillin-1, the phenotype of Tsk-1 is characterized by an increased hypodermal thickness. Genotyping of Tsk-1 mice was performed by PCR with the following primers: mutated fibrillin-1/ Tsk-1 forward primer: 5' - […] - 3', reverse primer: 5' - […] - 3'. Tsk-1 mice were treated daily with test drug or vehicle, respectively, by oral gavage. In addition, a group of corresponding wild type(pa/pa) mice was treated with vehicle. The treatment was started at an age of five weeks. After five weeks of treatment, mice were sacrificed by cervical dislocation and skin samples were obtained for analysis.
Histological analysis, hydroxyproline assay and immunhistochemistry for α-smooth muscel actin were performed as described in the Example 1A section. Table 4: Effects of example 1A on established skin fibrosis in Tsk-mice
Fibrosis parameters expressed as x-fold change with respect to vehicle-treated wild type mice

[4] = Haemodynamic effects in conscious mice with telemetric implants (Example D); assay type: in vivo; conditions: dosages with antifibrotic properties
Experimental: The haemodynamic effects of i.e. example (1A) were analyzed in conscious mice. Telemetric implants (DSI®) were used. Signals were received with RMC1-DSI® receiver plates, compiled and analyzied with PONEMAH® physiology platform software.
The mice received either placebo (tylose), 0.3 mg/kg example 1A, 1mg/kg example 1A, 3mg/kg example 1A (Figure 1). The blood pressure and heart rate was monitored before and after application of placebo or the compounds.

human dermal fibroblasts = assay: TGFbeta-induced collagen gene expression and hydroxyproline deposition in human dermal fibroblasts in vitro (Example E); assay type: cell-based
Experimental: The effects of example 1A and vardenafil as standalone and in combination were analyzed in vitro in human dermal fibroblasts in vitro.

[5] = bleomycin-induced SSc in mice, preventive dose-regimen
[6] = Bleomycin + 1 mg/kg example 1A, twice a day via gavage for 21 days, x-fold change with respect to vehicle-treated control
[7] = Bleomycin + 3mg/kg example 1A, twice a day via gavage for 21 days, x-fold change with respect to vehicle-treated control
[8] = Bleomycin 6 weeks + 3 weeks example 1A (3mg/kg p.o., twice a day, last 3 weeks), x-fold change with respect to vehicle-treated control (group a)
[9] = bleomycin-induced SSc in mice, therapeutic dose-regimen after established fibrosis
[10] = TSK mice, established fibrosis before start of treatment

## Nc1nc(-c2nn(Cc3ccccc3F)c3ncccc23)ncc1C1CC1 [Example 1A, 3-(4-Amino-5-cyclopropylpyrimidin-2-yl)-1-(2-fluorobenzyl)-1H-pyrazolo[3,4-b]pyridine]
[1]; Bleomycin + 1 mg/kg example 1A, twice a day via gavage for 21 days, DBA/2 mice, x-fold change with respect to vehicle-treated control
  dermal thickness: 1.37 x-fold change
[1]; Bleomycin + 3mg/kg example 1A, twice a day via gavage for 21 days, DBA/2 mice, x-fold change with respect to vehicle-treated control
  dermal thickness: 1.19 x-fold change
[1]; [5]
  dermal thickness: significantly reduced
  hydroxyproline content of the skin: significantly reduced
  number of dermal myofibroblasts: significantly reduced
[1]; [6]
  Collagen content: 1.19 x-fold change
  Myofibroblast count: 3.23 x-fold change
[1]; [7]
  Collagen content: 1.11 x-fold change
  Myofibroblast count: 1.90 x-fold change
[2]; [8]
  Myofibroblast count: 1.68 x-fold change
  dermal thickness: 1.26 x-fold change
[2]; [9]
  dermal thickness: significantly reduced
  hydroxyproline content of the skin: significantly reduced
  number of dermal myofibroblasts: significantly reduced
[3]; [10]
  dermal thickness: significantly reduced
  hydroxyproline content of the skin: significantly reduced
  number of dermal myofibroblasts: significantly reduced
[3]; Tsk-1 + 1 mg/kg example 1A
  hypodermal thickness: 3.46 x-fold change
  Collagen content: 1.61 x-fold change
  Myofibroblast count: 2.12 x-fold change
[3]; Tsk-1 + 3mg/kg example 1A
  hypodermal thickness: 2.88 x-fold change
  Collagen content: 1.67 x-fold change
  Myofibroblast count: 1.70 x-fold change
[4]
  heamodynamic profile (blood pressure and heart rate): did not or only moderately, change
Human dermal fibroblasts
  TGF-induced collagen gene expression: significantly blocked
  TGFbeta-induced Hydroxyproline (HP) deposition: significantly blocked
Human dermal fibroblasts; listed as example 1A
  TGF-induced collagen gene expression: blocked
